In PubChem BioAssay (NCI):
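Each compound was tested at five concentrations against cells in 96-well plates for 48 hours. GI50 is the concentration that inhibits growth by half. TGI: concentration producing complete growth inhibition.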

What was measured:
Test in all cases: growth of human tumour cells (NCI), 48 h
786-0 renal = tested on: 786-0 renal
A498 renal = tested on: A498 renal
A549 NSCLC = tested on: A549 NSCLC
ACHN renal = tested on: ACHN renal
BT-549 breast = tested on: BT-549 breast
CCRF-CEM leukemia = tested on: CCRF-CEM leukemia
COLO 205 colon = tested on: COLO 205 colon
DU-145 prostate = tested on: DU-145 prostate
HCC-2998 colon = tested on: HCC-2998 colon
HCT-116 colon = tested on: HCT-116 colon
HCT-15 colon = tested on: HCT-15 colon
HL-60(TB) leukemia = tested on: HL-60(TB) leukemia
HOP-62 NSCLC = tested on: HOP-62 NSCLC
HOP-92 NSCLC = tested on: HOP-92 NSCLC
HS 578T breast = tested on: HS 578T breast
HT29 colon = tested on: HT29 colon
IGROV1 ovarian = tested on: IGROV1 ovarian
K-562 leukemia = tested on: K-562 leukemia
KM12 colon = tested on: KM12 colon
LOX IMVI melanoma = tested on: LOX IMVI melanoma
M14 melanoma = tested on: M14 melanoma
MALME-3M melanoma = tested on: MALME-3M melanoma
MCF7 breast = tested on: MCF7 breast
MDA-MB-231 breast = tested on: MDA-MB-231 breast
MDA-MB-435 = tested on: MDA-MB-435
MOLT-4 leukemia = tested on: MOLT-4 leukemia
NCI-H226 lung = tested on: NCI-H226 lung
NCI-H23 lung = tested on: NCI-H23 lung
NCI-H460 lung = tested on: NCI-H460 lung
NCI-H522 lung = tested on: NCI-H522 lung
NCI/ADR-RES ovarian = tested on: NCI/ADR-RES ovarian
OVCAR-3 ovarian = tested on: OVCAR-3 ovarian
OVCAR-4 ovarian = tested on: OVCAR-4 ovarian
OVCAR-5 ovarian = tested on: OVCAR-5 ovarian
OVCAR-8 ovarian = tested on: OVCAR-8 ovarian
PC-3 prostate = tested on: PC-3 prostate
RPMI-8226 leukemia = tested on: RPMI-8226 leukemia
RXF 393 renal = tested on: RXF 393 renal
SF-268 CNS = tested on: SF-268 CNS
SF-295 CNS = tested on: SF-295 CNS
SF-539 CNS = tested on: SF-539 CNS
SK-MEL-2 melanoma = tested on: SK-MEL-2 melanoma
SK-MEL-28 melanoma = tested on: SK-MEL-28 melanoma
SK-MEL-5 melanoma = tested on: SK-MEL-5 melanoma
SK-OV-3 ovarian = tested on: SK-OV-3 ovarian
SN12C renal = tested on: SN12C renal
SNB-19 CNS = tested on: SNB-19 CNS
SNB-75 CNS = tested on: SNB-75 CNS
SR leukemia = tested on: SR leukemia
SW-620 colon = tested on: SW-620 colon
T-47D breast = tested on: T-47D breast
TK-10 renal = tested on: TK-10 renal
U251 CNS = tested on: U251 CNS
UACC-257 melanoma = tested on: UACC-257 melanoma
UACC-62 melanoma = tested on: UACC-62 melanoma
UO-31 renal = tested on: UO-31 renal

In the case of `O=C1/C(=C/c2ccc(F)cc2)CN(Cc2cn(CCNc3ccnc4cc(Cl)ccc34)nn2)C/C1=C\c1ccc(F)cc1`, the GI50 (786-0 renal) is reported as 1660 nM, the TGI (786-0 renal) is reported as 3040 nM and the GI50 (A498 renal) is reported as 1110 nM. The TGI (A498 renal) was 2350 nM, the GI50 (A549 NSCLC) was 1880 nM and the TGI (A549 NSCLC) was 4230 nM. For the same compound, the GI50 (ACHN renal) was 1680 nM, the TGI (ACHN renal) was 3040 nM and the GI50 (BT-549 breast) was 1850 nM. The TGI (BT-549 breast) was 3260 nM, the GI50 (CCRF-CEM leukemia) was 1050 nM and the TGI (CCRF-CEM leukemia) was 4650 nM. It also gave a GI50 (COLO 205 colon) of 1500 nM, a TGI (COLO 205 colon) of 2880 nM and a GI50 (DU-145 prostate) of 1320 nM. For the same compound, the TGI (DU-145 prostate) was 2630 nM, the GI50 (HCC-2998 colon) was 1190 nM and the TGI (HCC-2998 colon) was 2550 nM. For the same compound, the GI50 (HCT-116 colon) was 258 nM, the TGI (HCT-116 colon) was 721 nM and the GI50 (HCT-15 colon) was 1400 nM. It also gave a TGI (HCT-15 colon) of 3210 nM, a GI50 (HL-60(TB) leukemia) of 1410 nM and a TGI (HL-60(TB) leukemia) of 4970 nM. For the same compound, the GI50 (HOP-62 NSCLC) was 2070 nM, the TGI (HOP-62 NSCLC) was 3760 nM and the GI50 (HOP-92 NSCLC) was 1340 nM. The TGI (HOP-92 NSCLC) was 3050 nM, the GI50 (HS 578T breast) was 2330 nM and the TGI (HS 578T breast) was 7560 nM. It also gave a GI50 (HT29 colon) of 680 nM, a TGI (HT29 colon) of 2090 nM and a GI50 (IGROV1 ovarian) of 1500 nM. It also gave a TGI (IGROV1 ovarian) of 2930 nM, a GI50 (K-562 leukemia) of 301 nM and a TGI (K-562 leukemia) of 1580 nM. For the same compound, the GI50 (KM12 colon) was 328 nM, the TGI (KM12 colon) was 1190 nM and the GI50 (LOX IMVI melanoma) was 474 nM. It also gave a TGI (LOX IMVI melanoma) of 1720 nM, a GI50 (M14 melanoma) of 1920 nM and a TGI (M14 melanoma) of 3740 nM. The GI50 (MALME-3M melanoma) was 1980 nM, the TGI (MALME-3M melanoma) was 3760 nM and the GI50 (MCF7 breast) was 400 nM. It also gave a TGI (MCF7 breast) of 1750 nM, a GI50 (MDA-MB-231 breast) of 1760 nM and a TGI (MDA-MB-231 breast) of 3410 nM. For the same compound, the GI50 (MDA-MB-435) was 1410 nM, the TGI (MDA-MB-435) was 2730 nM and the GI50 (MOLT-4 leukemia) was 2380 nM. The TGI (MOLT-4 leukemia) was 7080 nM, the GI50 (NCI-H226 lung) was 1910 nM and the TGI (NCI-H226 lung) was 4240 nM. It also gave a GI50 (NCI-H23 lung) of 1840 nM, a TGI (NCI-H23 lung) of 4010 nM and a GI50 (NCI-H460 lung) of 1180 nM. It also gave a TGI (NCI-H460 lung) of 2570 nM, a GI50 (NCI-H522 lung) of 1670 nM and a TGI (NCI-H522 lung) of 3160 nM. The GI50 (NCI/ADR-RES ovarian) was 2760 nM, the TGI (NCI/ADR-RES ovarian) was 11300 nM and the GI50 (OVCAR-3 ovarian) was 1240 nM. It also gave a TGI (OVCAR-3 ovarian) of 2500 nM, a GI50 (OVCAR-4 ovarian) of 1810 nM and a TGI (OVCAR-4 ovarian) of 8750 nM. The GI50 (OVCAR-5 ovarian) was 1920 nM, the TGI (OVCAR-5 ovarian) was 3710 nM and the GI50 (OVCAR-8 ovarian) was 1780 nM. For the same compound, the TGI (OVCAR-8 ovarian) was 5240 nM, the GI50 (PC-3 prostate) was 1160 nM and the TGI (PC-3 prostate) was 2600 nM. The GI50 (RPMI-8226 leukemia) was 299 nM, the TGI (RPMI-8226 leukemia) was 896 nM and the GI50 (RXF 393 renal) was 1660 nM. The TGI (RXF 393 renal) was 3110 nM, the GI50 (SF-268 CNS) was 1520 nM and the TGI (SF-268 CNS) was 2910 nM. The GI50 (SF-295 CNS) was 1940 nM, the TGI (SF-295 CNS) was 3650 nM and the GI50 (SF-539 CNS) was 1830 nM. The TGI (SF-539 CNS) was 3270 nM, the GI50 (SK-MEL-2 melanoma) was 1940 nM and the TGI (SK-MEL-2 melanoma) was 3730 nM. For the same compound, the GI50 (SK-MEL-28 melanoma) was 1740 nM, the TGI (SK-MEL-28 melanoma) was 3130 nM and the GI50 (SK-MEL-5 melanoma) was 1700 nM. The TGI (SK-MEL-5 melanoma) was 3060 nM, the GI50 (SK-OV-3 ovarian) was 1600 nM and the TGI (SK-OV-3 ovarian) was 3020 nM. It also gave a GI50 (SN12C renal) of 1580 nM, a TGI (SN12C renal) of 3090 nM and a GI50 (SNB-19 CNS) of 1570 nM. It also gave a TGI (SNB-19 CNS) of 2920 nM, a GI50 (SNB-75 CNS) of 1600 nM and a TGI (SNB-75 CNS) of 3620 nM. The GI50 (SR leukemia) was 333 nM, the TGI (SR leukemia) was 1660 nM and the GI50 (SW-620 colon) was 366 nM. It also gave a TGI (SW-620 colon) of 1390 nM, a GI50 (T-47D breast) of 1890 nM and a TGI (T-47D breast) of 4330 nM. It also gave a GI50 (TK-10 renal) of 1850 nM, a TGI (TK-10 renal) of 3450 nM and a GI50 (U251 CNS) of 1330 nM. The TGI (U251 CNS) was 2680 nM, the GI50 (UACC-257 melanoma) was 1780 nM and the TGI (UACC-257 melanoma) was 3350 nM. It also gave a GI50 (UACC-62 melanoma) of 1560 nM, a TGI (UACC-62 melanoma) of 2950 nM and a GI50 (UO-31 renal) of 1370 nM. For the same compound, the TGI (UO-31 renal) was 2700 nM.
